Target: T1, Complement C1s subcomponent (Homo sapiens, UniProt P09871)
T1 sequence (P09871 whole entry): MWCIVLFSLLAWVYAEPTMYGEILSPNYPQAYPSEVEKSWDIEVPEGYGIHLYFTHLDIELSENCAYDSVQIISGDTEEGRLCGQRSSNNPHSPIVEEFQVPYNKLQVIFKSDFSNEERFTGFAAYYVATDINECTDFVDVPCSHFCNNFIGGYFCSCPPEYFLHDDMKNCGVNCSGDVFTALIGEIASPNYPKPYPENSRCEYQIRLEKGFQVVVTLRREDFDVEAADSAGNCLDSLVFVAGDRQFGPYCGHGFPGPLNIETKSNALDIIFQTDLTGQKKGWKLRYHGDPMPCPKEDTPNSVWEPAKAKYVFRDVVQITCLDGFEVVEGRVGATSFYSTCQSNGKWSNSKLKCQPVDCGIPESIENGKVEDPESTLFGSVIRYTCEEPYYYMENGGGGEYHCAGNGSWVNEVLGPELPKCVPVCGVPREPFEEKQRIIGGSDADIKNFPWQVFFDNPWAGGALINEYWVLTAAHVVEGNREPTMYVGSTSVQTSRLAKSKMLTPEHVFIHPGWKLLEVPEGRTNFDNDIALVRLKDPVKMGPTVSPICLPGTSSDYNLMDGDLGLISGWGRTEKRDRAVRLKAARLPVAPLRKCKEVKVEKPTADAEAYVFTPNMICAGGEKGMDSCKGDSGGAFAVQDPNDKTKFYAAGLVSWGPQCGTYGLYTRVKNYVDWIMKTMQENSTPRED
Assay: Human C1s Enzyme Assay
Procedure: Human complement C1s enzyme (purified from human serum, Complement Technology, Inc.) at 1.16 nM final concentration was incubated with test compound at various concentrations for 5 min at room temperature in 50 mM Tris, 1 M NaCl, pH 7.5. A synthetic substrate Z-L-Lys-SBzl and DTNB (Ellman's reagent) were added to final concentrations of 100 μM each. Absorbance at 405 nm (A405) was recorded at 30 second intervals for 30 min using a microplate spectrophotometer. IC50 values were calculated by nonlinear regression of complement C1s reaction rates as a function of test compound concentration.

Row | IC50 [nM] | Structure (SMILES)
1 | < 100 | N=C(N)c1cc(CNC(=O)[C@@H]2CC3(CN2C(=O)CNC(=O)c2ccc(-c4ccccc4)cn2)OCCO3)cs1 [US20250346585, Compound 144]
2 | > 1000 | O=C(NCC(=O)N1CC2(C[C@H]1C(=O)NCc1cc(N3CCCC3=O)cs1)OCCO2)c1ccc(Oc2ccc(F)cc2)cc1 [US20250346585, Compound 290]
3 | < 100 | CC(=O)NCCNC[C@@]12C[C@@H]1N(C(=O)CNC(=O)c1ccc3c(c1)-c1ccccc1C3(F)F)[C@H](C(=O)N[C@H](C)c1cc(C(=N)N)cs1)C2 [US20250346585, Compound 315]
4 | < 100 | C[C@@H](NC(=O)[C@@H]1C[C@@H](S(C)(=O)=O)CN1C(=O)CNC(=O)c1ccc2sc3ccccc3c2c1)c1cc(C(=N)N)cs1 [US20250346585, Compound 332]

Row | Structure (SMILES) | IC50 [nM]
5 | C[C@@H](NC(=O)[C@H]1C[C@]2(CC(F)(F)F)C[C@@H]2N1C(=O)CNC(=O)c1ccc2c(c1)-c1ccccc1C2(F)F)c1cc(C(=N)N)cs1 [US20250346585, Compound 410] | > 1000
6 | C[C@@H](NC(=O)[C@@H]1C[C@]2(CC(F)(F)F)C[C@@H]2N1C(=O)CNC(=O)c1ccc2c(c1)-c1ccccc1C2(F)F)c1cc(C(=N)N)cs1 [US20250346585, Compound 411] | > 1000
